# Reference: paper PMC8305076, “Comprehensive Evaluation of Biological Effects of Pentathiepins on Various Human Cancer Cell Lines and Insights into Their Mode of Action” (International Journal of Molecular Sciences, 2021)
# Where two headings read alike, the source gives them in different places.
# Key:
# Assay type in all cases: cell-based
# HAP-1.KO.GPx1 = experiment: MTT cell viability assay; conditions: Homo sapiens; for IC50: 48 h; for IC90: calculated via GraphPad QuickCalcs from MTT IC50 and slope factor
# Description: (§1) Distinct MTT cell viability and crystal violet cell proliferation assays were performed to assess the cytotoxicity of the compounds 1–6 on 14 human cancer cell lines. In the viability assay, cells with intact mitochondria and thus active dehydrogenases are competent to convert MTT to the corresponding insoluble formazan. The formazan can be photometrically detected after solubilization and allows for indirect conclusions about the viability of the cells as an IC50 value. In the crystal violet assay, cells are stained by the binding of the dye to the chromatin, thus allowing for a quantification of biomass that remains adherent after a treatment in comparison with a control after a specific time. Potency is defined as the growth inhibitory concentration 50% (GI50).
# (§2) In addition to performing the cell viability assay under normoxia (19% atmospheric oxygen), incubations were also conducted under hypoxic conditions, i.e., atmospheric oxygen levels of 1% during the treatment for 48 h. Hypoxia is a favorable condition of the tumor microenvironment that is connected with poor outcome. Therefore, the low oxygen condition mimics better the tumor environment. The biological effect of the pentathiepins under this condition provides insight into their dependency for oxygen, which has been postulated a key component in the proposed mechanism of action (Figure 3). Consistent with the proposed mechanism of action for five of the compounds, potency decreased under hypoxic conditions; in fact for 6, the half-maximal inhibitory concentration exceeded the highest tested concentration of 10 µM in four cell lines (Figure 6, Table S3). […] In contrast to the other compounds, in some cell lines, the cytotoxic effects of 1 were more pronounced under oxygen-reduced incubation conditions (Figure 6), indicating a tangential role of oxygen availability for this pentathiepin. Especially for the breast cancer cell line MCF-7, the cytotoxicity increased substantially, indicated by a decrease of the IC50 from >10.0 µM to about 1.0 µM.
# (§3) The effect of the pentathiepins on the viability of the cell lines was assessed via an MTT assay, performed as previously described. Healthy and viable cells convert the yellow soluble 3-(4,5-dimethylthiazol-2-yl)-2,5-diphenyltetrazolium bromide to the insoluble purple corresponding formazan, which can be spectrophotometrically measured. For this assay, 5000 cells (1 250 for LCLC-103H) in 0.1 mL of medium were seeded per well of a 96-well plate and incubated at standard conditions for 24 h prior to treatment. A serial dilution of the test compounds was prepared in medium, covering final concentrations from 10.0 to 0.04 µM, and 0.1 mL of the working solution was added to each well in triplicate. After 48 h, 20 µL of a 2.5 mg/mL MTT in PBS solution was pipetted into each well and further incubated for 4 h at standard conditions. Thereafter, medium was replaced with 50 µL DMSO, and the plates were put on a shaker for 5 min and subsequently read at λ = 570 nm, with a SpectraMax 384plus (Molecular Devices, Sunnyvale, CA, USA). The cell viabilities of the treatment conditions were calculated in relation to a solvent control sample. The absolute IC50 was calculated via nonlinear regression followed by interpolation of the dose–response graphs in Prism 7 (GraphPad, San Diego, CA, USA). The IC90 was derived from the IC50 by using the slope factor of the dose–response graph with the tool QuickCalcs from GraphPad (GraphPad Software, San Diego, CA, USA).
# Kyse-70 = experiment: MTT cell viability assay; conditions: Homo sapiens, 48 h
# Description: as §1, §2, §3
# HAP-1 = experiment: MTT cell viability assay; conditions: Homo sapiens; for IC50: HAP1, 48 h; for IC90: HAP1, calculated via GraphPad QuickCalcs from MTT IC50 and slope factor
# Description: as §1, §2, §3
# PATU-8902 = experiment: MTT cell viability assay; conditions: Homo sapiens; for IC50: 48 h; for IC90: calculated via GraphPad QuickCalcs from MTT IC50 and slope factor
# Description: as §1, §2, §3
# Siso = experiment: MTT cell viability assay; conditions: Homo sapiens; for IC50: 48 h; for IC90: calculated via GraphPad QuickCalcs from MTT IC50 and slope factor
# Description: as §1, §2, §3
# RT-4 = experiment: MTT cell viability assay; conditions: Homo sapiens, 48 h
# Description: as §1, §2, §3
# YAPC = experiment: MTT cell viability assay; conditions: Homo sapiens; for IC50: 48 h; for IC90: calculated via GraphPad QuickCalcs from MTT IC50 and slope factor
# Description: as §1, §2, §3
# LCLC-103H = experiment: MTT cell viability assay; conditions: Homo sapiens, 48 h
# Description: as §1, §2, §3
# A2780 = experiment: MTT cell viability assay; conditions: Homo sapiens; for IC50: 48 h; for IC90: calculated via GraphPad QuickCalcs from MTT IC50 and slope factor
# Description: as §1, §2, §3
# RT-112 = experiment: MTT cell viability assay; conditions: Homo sapiens, 48 h
# Description: as §1, §2, §3
# A-427 = experiment: MTT cell viability assay; conditions: Homo sapiens, 48 h
# Description: as §1, §2, §3
# [1] = tested on: panel of 14 human cancer cell lines; experiment: crystal violet proliferation assay, whole panel; set-up: key to Antiproliferative effect: no impact (0); weak impact (+); strong impact (++); conditions: for GI50: mean over the cell line panel, normoxia, read-out: GI50 CV, mean per compound; for Antiproliferative effect: summary grade
# Description: as §1
# The antiproliferative effect of the pentathiepins on human cancer cell lines was analyzed by crystal violet assay based on the protocol of a previous publication. […] After dissolving in ethanol, the optical density was measured. Here, 1000 cells (250 for LCLC-103H) in 0.1 mL of medium were seeded per well of a 96 well plate and incubated at standard conditions for 24 h prior to treatment to allow for adhesion of the cells. A serial dilution of the test compounds was prepared in medium, covering final concentrations from 10.0 to 0.04 µM and 0.1 mL of the working solution added to each well in triplicate. Additionally, samples for each cell line were seeded and directly fixed after 24 h to measure the cell density at the beginning of treatment (t0). Fixation was performed by replacing medium with 0.1 mL of a solution containing 1% glutaraldehyde in Dulbecco’s buffer (0.2 g/L KCl, 0.1 g/L MgSO4·7 H2O, 1.55 g/L Na2HPO4·7 H2O, 0.2 g/L KH2HPO4, and 8 g/L NaCl in water) for 20 min. Plates were stored in 0.1 mL of Dulbecco’s buffer until further processing. After 96 h of treatment, the same fixation process was applied to the plates containing cells and test compounds. To stain the cells, 0.1 mL of an aqueous solution of crystal violet (0.02%) was added per well for 20 min, then discarded and the plates afterwards rinsed in clear water for 30 min. The dye was extracted in 50 µL of ethanol per well during 2 h of shaking. The plates were read at λ = 570 nm using a SpectraMax 384plus (Molecular Devices, Sunnyvale, CA, USA), and the proliferation of the treatment conditions was calculated in relation to a solvent control sample after subtracting the background value of the T0-plates. The GI50 (half-maximal growth inhibitory concentration) was calculated via nonlinear regression followed by interpolation of the dose–response graphs in Prism 7 (GraphPad, San Diego, CA, USA). […]
# [2] = hypoxic (1% O2), read-out: IC50 MTT-H mean
# [3] = normoxic (19% O2), read-out: IC50 MTT-N mean
Compound,IC50 (HAP-1.KO.GPx1; [2]),IC50 (HAP-1.KO.GPx1; [3]),IC90 (HAP-1.KO.GPx1),IC50 (Kyse-70; [2]),IC50 (Kyse-70; [3]),IC50 (HAP-1; [2]),IC50 (HAP-1; [3]),IC90 (HAP-1),IC50 (PATU-8902; [2]),IC50 (PATU-8902; [3]),IC90 (PATU-8902),IC50 (Siso; [2]),IC50 (Siso; [3]),IC90 (Siso),IC50 (RT-4; [2]),IC50 (RT-4; [3]),IC50 (YAPC; [2]),IC50 (YAPC; [3]),IC90 (YAPC),IC50 (LCLC-103H; [2]),also measured
"CCOc1c2c(c3cnc4[nH]c(-c5ccc(OC)cc5)cc4n13)SSSSS2 [Compound 1, 11-Ethoxy-2-(4-methoxyphenyl)-3H-[1,2,3,4,5]pentathiepino[6′,7′:3,4]pyrrolo[1,2-a]pyrrolo[2,3-e]pyrazine]",428 nM,358 nM,550 nM,532 nM,477 nM,384 nM,398 nM,710 nM,543 nM,579 nM,1220 nM,602 nM,414 nM,770 nM,522 nM,1930 nM,360 nM,780 nM,2470 nM,552 nM,IC50 (LCLC-103H; [3]): 1420 nM; IC50 (A2780; [2]): 443 nM; IC50 (A2780; [3]): 692 nM; IC90 (A2780): 1870 nM; IC50 (RT-112; [2]): 306 nM; IC50 (RT-112; [3]): 399 nM; IC50 (A-427; [2]): 285 nM; IC50 (A-427; [3]): 349 nM; GI50 ([1]; Homo sapiens): 333 nM; Antiproliferative effect [1]: ++
"CCOc1c2c(c3ccc(C(=O)N4CCCCC4)cn13)SSSSS2 [Compound 2, (6-Ethoxy-[1,2,3,4,5]pentathiepino[6,7-a]indolizin-9-yl)(piperidinyl)methanone]",1190 nM,644 nM,1200 nM,2100 nM,1580 nM,847 nM,600 nM,1180 nM,3150 nM,1720 nM,6520 nM,2960 nM,1380 nM,2700 nM,5900 nM,1600 nM,2230 nM,1550 nM,4260 nM,1540 nM,IC50 (LCLC-103H; [3]): 1360 nM; IC50 (A2780; [2]): 804 nM; IC50 (A2780; [3]): 430 nM; IC90 (A2780): 1000 nM; IC50 (RT-112; [2]): 1720 nM; IC50 (RT-112; [3]): 1340 nM; IC50 (A-427; [2]): 1080 nM; IC50 (A-427; [3]): 1460 nM; GI50 ([1]; Homo sapiens): 493 nM; Antiproliferative effect [1]: +
"CCOc1c2c(c3ccc(C(=O)N4CCOCC4)cn13)SSSSS2 [Compound 3, (6-Ethoxy-[1,2,3,4,5]pentathiepino[6,7-a]indolizin-9-yl)(morpholino)methanone]",911 nM,368 nM,800 nM,2290 nM,824 nM,657 nM,263 nM,620 nM,2340 nM,1050 nM,2480 nM,2730 nM,573 nM,1230 nM,2310 nM,878 nM,2370 nM,1220 nM,2240 nM,820 nM,IC50 (LCLC-103H; [3]): 571 nM; IC50 (A2780; [2]): 616 nM; IC50 (A2780; [3]): 135 nM; IC90 (A2780): 360 nM; IC50 (RT-112; [2]): 1470 nM; IC50 (RT-112; [3]): 1050 nM; IC50 (A-427; [2]): 959 nM; IC50 (A-427; [3]): 785 nM; GI50 ([1]; Homo sapiens): 170 nM; GI50 [1]: 174 nM; Antiproliferative effect [1]: ++
"CCOc1c2c(c3ccc(C(=O)N(CC)CC)cn13)SSSSS2 [Compound 4, 6-Ethoxy-N,N’-diethyl-[1,2,3,4,5]pentathiepino[6,7-a]indolizine-9-carboxamide]",1180 nM,322 nM,640 nM,3600 nM,976 nM,832 nM,263 nM,510 nM,1270 nM,823 nM,6000 nM,4240 nM,934 nM,1930 nM,2220 nM,1310 nM,2210 nM,1150 nM,3700 nM,827 nM,IC50 (LCLC-103H; [3]): 674 nM; IC50 (A2780; [2]): 799 nM; IC50 (A2780; [3]): 213 nM; IC90 (A2780): 610 nM; IC50 (RT-112; [2]): 1780 nM; IC50 (RT-112; [3]): 1200 nM; IC50 (A-427; [2]): 1190 nM; IC50 (A-427; [3]): 1090 nM; GI50 ([1]; Homo sapiens): 322 nM; Antiproliferative effect [1]: ++
